SMILES strings stand for the structures. Structures can show the parent of a compound that is named as a salt. Where a SMILES comes first, the peptide text is derived from it. The star is where a group is joined. Cbz = O=C(OCc1ccccc1)*

The first assay relates to THP-1-HMGB1-Lucia cells. As to the kind of experiment: TBZ-induced necroptosis screening by HMGB1-luciferase release. The conditions noted are these: 20 μM compound with TBZ, 8 h; TBZ alone = 100, DPBS = 0; read-out: % Inhibition (luciferase activity relative to TBZ-treated supernatant). In kind it is cell-based, human. The protocol: To identify potential inhibitors of the necroptosis pathway targeting MLKL or the process of p-MLKL pore formation on the membrane, we screened a library of 2150 compounds, including FDA-approved drugs and those in phase 1–3 clinical trials, using THP-1-HMGB1-Lucia™ cells expressing the HMGB1-luciferase fusion protein. The cells were treated with a necroptosis-inducing mixture containing TNF-α, BV6, and Z-VAD-FMK (TBZ) in addition to the compound library (Fig. 1A). The supernatants were harvested to measure luciferase activities for necroptosis. The luciferase activities of cell supernatants treated with TBZ alone were considered as the maximum release (100%) of HMGB1-luciferase. NEC-1, a known RIP1 inhibitor used in both humans and mice, was used as a positive control. […] Next, we performed a propidium iodide (PI) uptake assay to exclude cytotoxic compounds using THP-1 cells. Then, we selected candidate molecules that were arbitrarily less than 30% of those treated with TBZ. […] Next, the inhibition levels of p-MLKL were tested to select MLKL-targeting molecules (Figs. 1C and S1A). Compounds that reduced p-MLKL levels to less than 30% of TBZ-treated controls were considered as potential inhibitors of MLKL phosphorylation. Conversely, compounds that maintained p-MLKL levels above 70% were selected because they are presumed to prevent the formation of pores in the plasma membrane by interfering with oligomerization.
A clinical chemical library containing 2150 items (Korea Chemical Bank, South Korea), under phase 1–3 clinical trials, including FDA-approved drugs, was used to screen for necroptosis inhibitors. Each chemical was dissolved in DMSO and diluted to 20 μM in DPBS for treatment.
THP-1-HMGB1-Lucia^TM cells were pretreated with the pan-caspase inhibitor Z-VAD-FMK (50 μM, tlrl-vad, InvivoGen) and each chemical for 1 h, and followed by TNF-α (100 ng/mL, TNF0501, NKMAXBio, Seongnam, S. Korea) and Smac mimetic BV6 (10 μM, B1332-5, Biovision, Santa Clara, CA, USA), termed TBZ mixture, were added for necroptosis screening. The RIP1 inhibitor, NEC-1 (1846, Biovision), and MLKL inhibitor, NSA (432531-71-0, Sigma-Aldrich, St. Louis, MO, USA), were used as controls. The cell supernatant was harvested to measure HMGB1 levels using a luciferase assay kit (E1500, Promega, Madison, WI, USA) by a luminometer (Centro XS3 LB 960, Berthold Technologies, Bad Wildbad, Germany). The inhibition of necroptosis (%) was calculated as: (sample-treated data – medium-only data) × 100/(TBZ-treated data – medium-only data). APO [STK088477, (6aS)-6-methyl-5,6,6a,7-tetrahydro-4H-dibenzo[de,g]quinoline-10,11-diol, Vitas-M Laboratory, Hong Kong] was stored at −70 °C after aliquoting with DMSO. APO was used after dilution in DPBS. APO is susceptible to auto-oxidation in solution in the presence of light and air. DPBS containing 5 mM DTT was used for Re-APO. Ox-APO was prepared by incubating APO in DPBS at 25 °C for 24 h in the presence of light and air, followed by removal of any precipitate by filtration through 0.2 μm.
With `CN1C(=O)C(Cc2c[nH]c3ccccc23)NC1=S` (centres unmarked) [Necrostatin-1], the activity was 1.2%.

`CC(C)C[C@@H](C=O)NC(=O)[C@H](CC(C)C)NC(=O)[C@H](CC(C)C)NC(=O)OCc1ccccc1` [S6, Z-Leu-Leu-Leu-al] (Cbz-Leu-Leu-Leu-aldehyde): the activity was 7.5%.

On to `O=C(Nc1ccc(S(=O)(=O)C(F)(F)F)cc1)C1=CCN(c2ncccc2C(F)(F)F)CC1` [S7, A 784168], for which the activity worked out at 4.2%.

`COc1ccc(CNc2nc(N(CCO)CCO)nc3c2ncn3C(C)C)cc1` [S12, CVT-313]: the activity worked out at 4.7%.

Regarding `CC(=O)c1ccc(NC2=C(Cl)C(=O)c3ccccc3C2=O)cc1` [S21, NQ301], the activity came to 4.1%.

Take `CC(C)c1onc(-c2c(Cl)cccc2Cl)c1COc1ccc(/C=C/c2cccc(C(=O)O)c2)c(Cl)c1` [S27, GW4064]: the activity is 9.2%.

Regarding `COc1ccc(C(c2c(O)c3ccccc3oc2=O)c2c(O)c3ccccc3oc2=O)cc1CSc1ccccn1` [S29, STK529529], the activity was 2.8%.

With `Cc1ccccc1N(C)C(=O)c1ccc([S+]([O-])c2nccs2)c([N+](=O)[O-])c1` (centres unmarked) [S32, SB 268262], the activity amounted to 0%.

In the case of `COc1ccc(C(c2c(O)c3ccccc3oc2=O)c2c(O)c3ccccc3oc2=O)cc1Cn1nc(C)c([N+](=O)[O-])c1C` [S33, STK528708], the activity amounted to 0.1%.

Turning to `COc1ccc(CNC(=O)Nc2ncc([N+](=O)[O-])s2)cc1` [S36, AR-A014418], the activity came to 10.8%.

In the case of `O=c1[nH]c2ccc(Cl)cc2c(N[C@@H]2CN3CCC2CC3)c1-c1nc2ccccc2[nH]1` [S45, CHIR 124], the activity worked out at 6.5%.

Take `Nc1ncnc2c1c(I)cn2[C@@H]1O[C@H](CO)[C@@H](O)[C@H]1O` [S47, 5-Iodotubercidin]: the activity came to 4.9%.

In the case of `O=C1/C(=C/c2ccccc2F)CNC/C1=C\c1ccccc1F` [S49, EF-24], the activity amounted to 10.2%.

Regarding `O=S(=O)(c1ccccc1)N(CC(F)(F)F)c1ccc(C(O)(C(F)(F)F)C(F)(F)F)cc1` [S52, T0901317], the activity was 7.2%.

The same assay, now with this note: Homo sapiens, 8 h, read-out: % Inhibition (luciferase activity relative to TBZ-treated supernatant).
Take `CC(C)CN(C[C@@H](O)[C@H](Cc1ccccc1)NC(=O)O[C@H]1CO[C@H]2OCC[C@H]21)S(=O)(=O)c1ccc(N)cc1` [S23, Prezista]: the activity at 20 µM stood at 11.2%.

Take `C[C@@H]1O[C@@H](O[C@@H]2C=C3CC[C@@H]4[C@H](CC[C@]5(C)[C@@H](c6ccc(=O)oc6)CC[C@]45O)[C@@]3(C)CC2)[C@H](O)[C@H](O)[C@H]1O` [S48, Proscillaridin]: the activity at 20 µM turned out to be 6.8%.

With `COc1cccc2c1C(=O)c1c(O)c3c(c(O)c1C2=O)C[C@@](O)(C(C)=O)C[C@@H]3O[C@H]1C[C@H](N)[C@H](O)[C@H](C)O1` [S61, Daunorubicin], the activity at 20 µM worked out at 6%.

The same assay, now with this note: Homo sapiens; 20 μM compound with TBZ, 8 h; TBZ alone = 100, DPBS = 0; read-out: % Inhibition (luciferase activity relative to TBZ-treated supernatant).
For the compound `O=c1ncn2nc(Sc3ccc(F)cc3F)ccc2c1-c1c(Cl)cccc1Cl` [S2, Neflamapimod], the activity at 20 µM was 6.8%.

`CCc1c(Cl)c(O)c(Cl)c(O)c1C(=O)O[C@H]1[C@H](O)[C@H](OC)[C@H](OC/C2=C\C=C\C[C@H](O)/C(C)=C/[C@H](CC)[C@@H](O[C@@H]3OC(C)(C)[C@@H](OC(=O)C(C)C)[C@H](O)[C@@H]3O)/C(C)=C/C(C)=C/C[C@@H]([C@@H](C)O)OC2=O)O[C@@H]1C` [S5, Fidaxomicin]: the activity at 20 µM was found to be 5.9%.

Regarding `COC(=O)[C@]12CCC(C)(C)C[C@H]1[C@H]1C(=O)C=C3[C@@]4(C)C=C(C#N)C(=O)C(C)(C)[C@@H]4CC[C@@]3(C)[C@]1(C)CC2` [S8, Bardoxolone methyl], the activity at 20 µM is 0%.

On to `CO[C@H]1C[C@@H]2CC[C@@H](C)[C@@](O)(O2)C(=O)C(=O)N2CCCC[C@H]2C(=O)O[C@H]([C@H](C)C[C@@H]2CC[C@@H](OC(=O)C(C)(CO)CO)[C@H](OC)C2)CC(=O)[C@H](C)/C=C(\C)[C@@H](O)[C@@H](OC)C(=O)[C@H](C)C[C@H](C)/C=C/C=C/C=C/1C` [S9, Temsirolimus], for which the activity at 20 µM was 19%.

Consider `CC[C@H]1CN2CCc3cc(OC)c(OC)cc3[C@@H]2C[C@@H]1C[C@H]1NCCc2cc(OC)c(OC)cc21` [S13, Emetine dihydrochloride], for which the activity at 20 µM is 3.3%.

`COc1cc2nccc(Oc3ccc(NC(=O)C4(C(=O)Nc5ccc(F)cc5)CC4)cc3)c2cc1OC` [S14, Cabozantinib]: the activity at 20 µM was 0.7%.

Consider `Cc1ccc(F)c(NC(=O)Nc2ccc(-c3cccc4[nH]nc(N)c34)cc2)c1` [S20, Linifanib], for which the activity at 20 µM was found to be 0%.

For the compound `CN1CCN(c2nc(C3=C(c4c[nH]c5ccccc45)C(=O)NC3=O)c3ccccc3n2)CC1` [S22, Sotrastaurin], the activity at 20 µM was found to be 4.7%.

For the compound `CC(=O)[C@@]1(O)CC[C@H]2[C@@H]3CCC4=CC(=O)CCC4=C3[C@@H](c3ccc(N(C)C)cc3)C[C@@]21C` [S24, Ulipristal], the activity at 20 µM is 14%.

Consider `C=C(CC)C(=O)c1ccc(OCC(=O)O)c(Cl)c1Cl` [S26, Ethacrynic acid], for which the activity at 20 µM is 3%.

Regarding `CCCS(=O)(=O)Nc1ccc(F)c(C(=O)c2c[nH]c3ncc(-c4ccc(Cl)cc4)cc23)c1F` [S30, Vemurafenib], the activity at 20 µM worked out at 6.4%.

As to `CC1(C)CNc2cc(NC(=O)c3cccnc3NCc3ccncc3)ccc21` [S37, Motesanib], the activity at 20 µM was 9.4%.

In the case of `O=C(NC1CCNCC1)c1[nH]ncc1NC(=O)c1c(Cl)cccc1Cl` [S39, AT7519], the activity at 20 µM amounted to 19.5%.

`O=C(O)Cc1cccc(OCCCN(Cc2cccc(C(F)(F)F)c2Cl)CC(c2ccccc2)c2ccccc2)c1` [S40, GW3965]: the activity at 20 µM is 11.6%.

In the case of `Cc1cc(SCc2sc(-c3ccc(C(F)(F)F)cc3)nc2C)ccc1OCC(=O)O` [S41, GW 501516], the activity at 20 µM came to 9.1%.

For the compound `CNCc1ccc(-c2[nH]c3cc(F)cc4c3c2CCNC4=O)cc1` [S42, Rucaparib], the activity at 20 µM was found to be 9.1%.

With `N#CC1(c2ccc(NC(=O)c3cccnc3NCc3ccncc3)cc2)CCCC1` [S43, Apatinib], the activity at 20 µM stood at 3.4%.

For `CC(C)[C@H](CO)Nc1nc(Nc2cccc(Cl)c2)c2ncn(C(C)C)c2n1` [S44, Purvalanol A], the activity at 20 µM was determined as 3.8%.

For the compound `O=C(Nc1cccc2c(=O)cc(-c3nnn[nH]3)oc12)c1ccc(OCCCCc2ccccc2)cc1` [S50, Pranlukast], the activity at 20 µM was 10.9%.

Turning to `Cc1ccc(-n2nc(C(C)(C)C)cc2NC(=O)Nc2ccc(OCCN3CCOCC3)c3ccccc23)cc1` [S51, Doramapimod], the activity at 20 µM stood at 3.9%.

On to `C#C[C@]1(O)CC[C@H]2[C@@H]3CCc4cc(OC5CCCC5)ccc4[C@H]3CC[C@@]21C` [S54, Quinestrol], for which the activity at 20 µM came to 8.2%.

Consider `Nc1ccc2cc3ccc(N)cc3nc2c1` [S55, Proflavine hemisulfate], for which the activity at 20 µM is 3.5%.

`CO[C@H]1C[C@@H]2CC[C@@H](C)[C@@](O)(O2)C(=O)C(=O)N2CCCC[C@H]2C(=O)O[C@H]([C@H](C)C[C@@H]2CC[C@@H](O)[C@H](OC)C2)CC(=O)[C@H](C)/C=C(\C)[C@@H](O)[C@@H](OC)C(=O)[C@H](C)C[C@H](C)/C=C/C=C/C=C/1C` [S56, Sirolimus]: the activity at 20 µM turned out to be 0.3%.

`COc1cccc2c1C(=O)c1c(O)c3c(c(O)c1C2=O)C[C@@](O)(C(=O)CO)C[C@@H]3O[C@H]1C[C@H](N)[C@H](O[C@@H]2CCCCO2)[C@H](C)O1` [S57, Pirarubicin]: the activity at 20 µM turned out to be 6.4%.

Regarding `NC(CO)(CO)CO` [S59, Trometamol], the activity at 20 µM came out at 11%.

`COC(=O)C1=C(C)NC(C)=C(C(=O)OCCN(C)Cc2ccccc2)C1c1cccc([N+](=O)[O-])c1` (centres unmarked) [S60, Nicardipine hydrochloride]: the activity at 20 µM amounted to 3.8%.

Take `COCCOC(=O)C1=C(C)NC(C)=C(C(=O)OC/C=C/c2ccccc2)C1c1cccc([N+](=O)[O-])c1` (centres unmarked) [S63, Cilnidipine]: the activity at 20 µM was 11%.

The values above are taken from publication PMC12518639, “Apomorphine is a novel necroptosis inhibitor targeting mixed lineage kinase domain-like protein oligomerization” (Cell Death Discovery, 2025).
